Laboratory results taken from patent US10118930B2, “Piperidinylpyrazolopyrimidinones and their use” (BAYER PHARMA AKTIENGESELLSCHAFT, priority 2015, dated 2018).
Where a name gives a salt, the structure may show the parent alone.

System: clot lysis (fibrinolysis) in diluted human citrated plasma, tPA-induced
Assay: Plasma-based clot lysis assay (5%)
Format: biochemical
Conditions: human citrated platelet-poor plasma 5%, fibrinogen 3 μM, CaCl2 10 mM, tPA 0.2 nM, 37° C., OD at 405 nm
Description: B-2. Plasma-based Clot Lysis Assay (5%)
The clot-lysis test system configures the kinetics of clot formation and degradation in vitro and allows quantifying modulation of the process by selected test compounds.
The test compounds were dissolved in 1% acetic acid and further complemented with an equal volume of DMSO. The resulting stock solutions were serially diluted in 0.5% acetic acid/50% DMSO. 1 μL aliquots of these solutions were placed into 384 well microplates (Greiner, black, transparent bottom), followed by 30 μL of diluted human citrated plasma (platelet-poor, final concentration: 5%; supplemented with fibrinogen, final concentration: 3 μM; dilution buffer: 20 mM HEPES, 150 mM NaCl, 0.01% Brij (pH 7)). The reactions were started by addition of 20 μL of CaCl2 (final concentration: 10 mM), and tPA (tissue plasminogen activator, final concentration: 0.2 nM) in dilution buffer, followed by an additional volume of 20 μL dilution buffer for improved mixing. The reactions were incubated at 37° C. […] IC50 values were determined by comparing the resulting time courses with the time course of a blank control reaction.

Row | IC50 | Compound
1 | 14 nM | O=c1cc(C2CCNCC2)n2ncc(-c3cccc(Cl)c3)c2[nH]1 [Example 48, 3-(3-Chlorophenyl)-7-(piperidin-4-yl)pyrazolo[1,5-a]pyrimidin-5(4H)-one hydrochloride]
2 | 37 nM | CCCN(CC1CC1)C(=O)c1c(C)nn2c(C3CCNCC3)cc(=O)[nH]c12 [Example 406, N-(cyclopropyl-methyl)-2-methyl-5-oxo-7-(piperidin-4-yl)-N-propyl-4,5-dihydropyrazolo [1,5-a]pyrimidine-3-carboxamide hydrochloride]
3 | 30 nM | Cn1nccc1-c1cnn2c(C3CCNCC3)cc(=O)[nH]c12 [Example 375, 3-(1-methyl-1H-pyrazol-5-yl)-7-(piperidin-4-yl)pyrazolo[1,5-a]pyrimidin-5(4H)-one hydrochloride]
4 | 120 nM | Cc1nn2c(C3CCNCC3)cc(=O)[nH]c2c1C(=O)N1CCNC(=O)CC1 [Example 430, 2-methyl-3-[(5-oxo-1,4-diazepan-1-yl)carbonyl]-7-(piperidin-4-yl) pyrazolo[1,5-a] pyrimidin-5(4H)-one hydrochloride]
5 | 130 nM | Cc1c(Cl)cccc1-c1noc(-c2cnn3c(C4CCNCC4)cc(=O)[nH]c23)n1 [Example 140, 3-[3-(3-Chloro-2-methylphenyl)-1,2,4-oxadiazol-5-yl]-7-(piperidin-4-yl)pyrazolo[1,5-a]pyrimidin-5(4H)-one hydrochloride]
6 | 18 nM | O=c1cc(C2CCNCC2)n2ncc(S(=O)(=O)c3ccc(Cl)cc3Cl)c2[nH]1 [Example 74, 3-[(2,4-Dichlorophenyl)sulfonyl]-7-(piperidin-4-yl)pyrazolo[1,5-a]pyrimidin-5(4H)-one hydrochloride]
7 | 52 nM | C[C@@H](c1ccccc1)N(C)C(=O)c1cnn2c(C3CCNCC3)cc(=O)[nH]c12 [Example 360, N-methyl-5-oxo-N-[(1S)-1-phenylethyl]-7-(piperidin-4-yl)-4,5-dihydropyrazolo[1,5-a]pyrimidine-3-carboxamide hydrochloride]
8 | 31 nM | O=c1cc(C2CCNCC2)n2ncc(-c3nnc(C4CCCCC4)o3)c2[nH]1 [Example 293, 3-(5-cyclohexyl-1,3,4-oxadiazol-2-yl)-7-(piperidin-4-yl)pyrazolo[1,5-a]pyrimidin-5 (4H)-one hydrochloride]
9 | 26 nM | Cc1nn2c(C3CCNCC3)cc(=O)[nH]c2c1-c1nc(Cc2ccccc2Cl)no1 [Example 439, 3-[3-(2-chlorobenzyl)-1,2,4-oxadiazol-5-yl]-2-methyl-7-(piperidin-4-yl)pyrazolo[1,5-a]pyrimidin-5(4H)-one hydrochloride]
10 | 39 nM | Cc1nc(-c2ccc(C(F)(F)F)cc2)sc1-c1cnn2c(C3CCNCC3)cc(=O)[nH]c12 [Example 369, 3-{4-methyl-2-[4-(trifluoromethyl)phenyl]-1,3-thiazol-5-yl}-7-(piperidin-4-yl)pyrazolo[1,5-a]pyrimidin-5(4H)-one hydrochloride]
11 | 110 nM | COC(=O)c1cc2[nH]c(=O)cc(C3CCNCC3)n2n1 [Example 28, Methyl 5-oxo-7-(piperidin-4-yl)-4,5-dihydropyrazolo[1,5-a]pyrimidine-2-carboxylate]
12 | 43 nM | O=c1cc(C2CCNCC2)n2ncc(-c3nc(-c4cccnc4Cl)no3)c2[nH]1 [Example 148, 3-[3-(2-Chloropyridin-3-yl)-1,2,4-oxadiazol-5-yl]-7-(piperidin-4-yl)pyrazolo[1,5-a]pyrimidin-5(4H)-one hydrochloride]
13 | 35 nM | Cc1nc(-c2ccccc2)sc1-c1cnn2c(C3CCNCC3)cc(=O)[nH]c12 [Example 187, 3-(4-methyl-2-phenyl-1,3-thiazol-5-yl)-7-(piperidin-4-yl)pyrazolo[1,5-a]pyrimidin-5(4H)-one hydrochloride]
14 | 34 nM | Cc1nn2c(C3CCNCC3)cc(=O)[nH]c2c1C(=O)N(C)C1CCC1 [Example 401, N-cyclobutyl-N,2-dimethyl-5-oxo-7-(piperidin-4-yl)-4,5-dihydro-pyrazolo[1,5-a] pyrimidine-3-carboxamide hydrochloride]
15 | 29 nM | CCNC(=O)c1c(C)nn2c(C3CCNCC3)cc(=O)[nH]c12 [Example 317, N-ethyl-2-methyl-5-oxo-7-(piperidin-4-yl)-4,5-dihydropyrazolo[1,5-a]pyrimidine-3-carboxamide hydrochloride]
16 | 45 nM | CN(Cc1cccnc1)C(=O)c1cnn2c(C3CCNCC3)cc(=O)[nH]c12 [Example 318, N-methyl-5-oxo-7-(piperidin-4-yl)-N-(pyridin-3-ylmethyl)-4,5-dihydropyrazolo[1,5-a]pyrimidine-3-carboxamide hydrochloride]

Row | IC50 | Compound
17 | 40 nM | O=c1cc(C2CCNCC2)n2ncc(-c3ccccc3C(F)(F)F)c2[nH]1 [Example 63, 7-(Piperidin-4-yl)-3-[2-(trifluoromethyl)phenyl]pyrazolo[1,5-a]pyrimidin-5(4H)-one hydrochloride]
18 | 43 nM | O=C(c1cnn2c(C3CCNCC3)cc(=O)[nH]c12)N1CCC(O)CC1 [Example 95, 3-[(4-hydroxypiperidin-1-yl)carbonyl]-7-(piperidin-4-yl)pyrazolo[1,5-a]pyrimidin-5(4H)-one hydrochloride]
19 | 43 nM | O=c1cc(C2CCNCC2)n2ncc(-c3nc(-c4ccc(C(F)(F)F)c(F)c4)no3)c2[nH]1 [Example 134, 3-{3-[3-Fluoro-4-(trifluoromethyl)phenyl]-1,2,4-oxadiazol-5-yl}-7-(piperidin-4-yl)pyrazolo[1,5-a]pyrimidin-5(4H)-one hydrochloride]
20 | 10 nM | Cc1nn2c(C3CCNCC3)cc(=O)[nH]c2c1-c1nc(Cc2ccc(O)cc2)no1 [Example 446, 3-[3-(4-hydroxybenzyl)-1,2,4-oxadiazol-5-yl]-2-methyl-7-(piperidin-4-yl)pyrazolo[1,5-a]pyrimidin-5(4H)-one hydrochloride]
21 | 15 nM | Cc1noc(-c2cnn3c(C4CCNCC4)cc(=O)[nH]c23)n1 [Example 32, 3-(3-Methyl-1,2,4-oxadiazol-5-yl)-7-(piperidin-4-yl)pyrazolo[1,5-a]pyrimidin-5(4H)-one hydrochloride]
22 | 13 nM | O=C(NCc1ccccc1)c1cnn2c(C3CCNCC3)cc(=O)[nH]c12 [Example 22, N-Benzyl-5-oxo-7-(piperidin-4-yl)-4,5-dihydropyrazolo[1,5-a]pyrimidine-3-carboxamide hydrochloride]
23 | 38 nM | O=c1cc(C2CCNCC2)n2ncc(-c3nc(-c4cnccc4C(F)(F)F)no3)c2[nH]1 [Example 189, 7-(piperidin-4-yl)-3-{3-[4-(trifluoromethyl)pyridin-3-yl]-1,2,4-oxadiazol-5-yl}pyrazolo[1,5-a]pyrimidin-5(4H)-one hydrochloride]
24 | 34 nM | O=c1cc(C2CCNCC2)n2ncc(-c3nc(-c4cc(F)c(F)cc4F)no3)c2[nH]1 [Example 190, 7-(piperidin-4-yl)-3-[3-(2,4,5-trifluorophenyl)-1,2,4-oxadiazol-5-yl]pyrazolo[1,5-a]pyrimidin-5 (4H)-one hydrochloride]
25 | 61 nM | Cc1nn2c(C3CCNCC3)cc(=O)[nH]c2c1C(=O)N1CCCC1 [Example 415, 2-methyl-7-(piperidin-4-yl)-3-(pyrrolidin-1-ylcarbonyl) pyrazolo[1,5-a] pyrimidin-5(4H)-one hydrochloride]
26 | 31 nM | Cc1nn2c(C3CCNCC3)cc(=O)[nH]c2c1C(=O)NCC(C)C [Example 418, N-isobutyl-2-methyl-5-oxo-7-(piperidin-4-yl)-4,5-dihydro-pyrazolo[1,5-a] pyrimidine-3-carboxamide hydrochloride]
27 | 34 nM | COC(=O)c1c(C(F)(F)F)nn2c(C3CCNCC3)cc(=O)[nH]c12 [Example 454, Methyl 5-oxo-7-(piperidin-4-yl)-2-(trifluoromethyl)-4,5-dihydropyrazolo[1,5-a]pyrimidine-3-carboxylate hydrochloride]
28 | 540 nM | Cc1nn2c(C3CCNCC3)cc(=O)[nH]c2c1C(=O)N1CCN2CCCC2C1 (stereo not drawn) [Example 411, 3-(hexahydro-pyrrolo[1,2-a]pyrazin-2(1H)-ylcarbonyl)-2-methyl-7-(piperidin-4-yl) pyrazolo[1,5-a] pyrimidin-5(4H)-one hydrochloride]
29 | 49 nM | COCCCNC(=O)c1cnn2c(C3CCNCC3)cc(=O)[nH]c12 [Example 88, N-(3-methoxypropyl)-5-oxo-7-(piperidin-4-yl)-4,5-dihydropyrazolo[1,5-a]pyrimidine-3-carboxamide hydrochloride]
30 | 41 nM | Cc1ccc(-c2noc(-c3cnn4c(C5CCNCC5)cc(=O)[nH]c34)n2)c(Cl)c1 [Example 130, 3-[3-(2-Chloro-4-methylphenyl)-1,2,4-oxadiazol-5-yl]-7-(piperidin-4-yl)pyrazolo[1,5-a]pyrimidin-5(4H)-one hydrochloride]
31 | 130 nM | CCOC(=O)c1c(C(F)(F)F)nn2c(C3CCNCC3)cc(=O)[nH]c12 [Example 458, Ethyl 5-oxo-7-(piperidin-4-yl)-2-(trifluoromethyl)-4,5-dihydropyrazolo[1,5-a]pyrimidine-3-carboxylate hydrochloride]

Row | Compound | IC50
32 | O=c1cc(C2CCNCC2)n2ncc(C3CC3)c2[nH]1 [Example 344, 3-cyclopropyl-7-(piperidin-4-yl)pyrazolo[1,5-a]pyrimidin-5(4H)-one hydrochloride] | 120 nM
33 | O=c1cc(C2CCNCC2)n2nc3c(c2[nH]1)CCC3 [Example 30, 4-(Piperidin-4-yl)-1,7,8,9-tetrahydro-2H-cyclopenta[3,4]pyrazolo[1,5-a]pyrimidin-2-one hydrochloride] | 200 nM
